Patent US9526680B2, “Method for searching for malodor control agent, malodor control agent, and malodor control method” (Kao Corporation, priority 2010, dated 2016)
“Also recorded” adds a separate entry of the source.

How the values were obtained:
OR10A6 = molecular target: T1, OR10A6 (Homo sapiens, UniProt Q8NH74); assay: Luciferase reporter gene assay, OR10A6 expressed in HEK293 cells; format: cell-based; settings: for Inhibition ratio of OR10A6 response: response to hexanoic acid, test substance added together with hexanoic acid, HEK293; for Response of OR10A6 to the odor substance: fold increase of luciferase emission, 1 mM hexanoic acid or 300 μM nonanoic acid, or concentration series up to 1000 μM
T1 construct: expressed in transfected cells; host or cells: HEK293
T1 sequence (Q8NH74 1-314): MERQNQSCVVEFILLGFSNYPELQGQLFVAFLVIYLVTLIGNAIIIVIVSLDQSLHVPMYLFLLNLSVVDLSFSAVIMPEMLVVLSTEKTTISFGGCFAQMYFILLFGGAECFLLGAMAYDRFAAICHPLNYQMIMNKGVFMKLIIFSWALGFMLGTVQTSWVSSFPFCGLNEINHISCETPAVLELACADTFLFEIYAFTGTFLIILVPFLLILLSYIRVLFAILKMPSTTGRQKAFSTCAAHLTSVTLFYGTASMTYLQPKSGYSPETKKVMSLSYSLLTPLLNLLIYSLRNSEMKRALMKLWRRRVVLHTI
Procedure: (§1) Cloning of human olfactory receptors was performed based on the sequence information registered in GenBank, through PCR with human genomic DNA female (G1521: Promega) as a template. Each of the genes amplified through PCR was inserted into a pENTR vector (Invitrogen) according to an instruction manual. Then, the gene-inserted vector was digested with NotI and AscI, and the obtained fragments were inserted into NotI and AscI sites located downstream of the Flag-Rho tag sequence in the pME18S vector.
(§2) Each of the 350 types of human olfactory receptors was expressed in HEK293 cells. A reaction solution having a composition shown in Table 2 was prepared on a clean bench, and left to stand for 15 minutes. The solution was dispensed to each well of a 96-well plate (BD). Subsequently, […] cells (100 μL, 3×10^5 cells/cm^2) were seeded in each well and cultured for 24 hours in an incubator at 37° C. and under 5% CO2 conditions.
(§3) The olfactory receptor expressed in HEK293 cell was conjugated with cell-intrinsic Gas to activate adenylate cyclase, and thereby the level of intracellular cAMP was increased. For the measurement of the response to odor in this study, the luciferase reporter gene assay was used, in which an increase in the amount of intracellular cAMP was monitored by using the emission value originating from firefly luciferase gene (fluc2P-CRE-hygro) as an indicator. Furthermore, a gene product obtained by fusing renilla luciferase gene in the downstream of CMV promoter (hRluc-CMV) was simultaneously introduced, and this was used as an internal standard for correcting an error in the transgenesis efficiency or the number of cells. The medium was removed from the culture prepared in the above-described section 3) by using a Pipetman, and 75 μl of a solution containing an odor substance (1 mM hexanoic acid or 300 μM nonanoic acid) prepared in CD293 medium (Invitrogen) was added thereto. The cells were cultured for 4 hours in a CO2 incubator, and the luciferase gene was sufficiently expressed in the cells. For the measurement of luciferase activity, the measurement was carried out by using a Dual-Glo™ luciferase assay system (Promega) according to the operation manual of the product. A value calculated by dividing the emission value, derived from a firefly luciferase induced by the stimulation with an odor substance, by the emission value in cells that were not-stimulated with an odor substance, was designated as a fold increase, and used as an index of response intensity.
(§4) OR2W1, OR10A6, OR51E1, OR51I2, and OR51L1 were respectively expressed in HEK293 cells by the same method as that used in Example 1, and a luciferase assay was carried out. In the luciferase assay, hexanoic acid was used as the odorous substance, and test substances were added together with hexanoic acid. The response of the olfactory receptors to hexanoic acid was measured, and a decrease in the receptor response to the addition of test substances was evaluated.
(§5) The inhibition ratios of the receptor response to test substances were calculated as follows. The emission value (Y) obtained from the cells in which the same receptors were introduced but no odor stimulation was conducted, was subtracted from the emission value derived from firefly luciferase (X) induced by odor stimulation with hexanoic acid alone. Similarly, the emission value (Y) obtained from the cells in which no odor stimulation was conducted, was subtracted from the emission value (Z) caused by stimulation with a mixture of hexanoic acid and a test substance. By the following calculation formula, the inhibitory activity of the test substance to receptor response was calculated based on the increment of the emission value (X−Y) caused by stimulation of hexanoic acid alone. Multiple independent experiments were performed in duplicate, and the average of each experiment was obtained. Inhibition ratio (%)={1−(Z−Y)/(X−Y)}×100

[1] = Sensory evaluation test of hexanoic acid odor inhibition; format: in vivo
Procedure: Cotton balls were introduced into a glass bottle (Hakuyo Glass Co., Ltd. No. 11, capacity 110 ml), and hexanoic acid diluted 100 times with propylene glycol, nonanoic acid diluted 10 times with propylene glycol, or isovaleric acid diluted 1000 times with propylene glycol, as a malodor, and a test substance were added dropwise in an amount of […] to the cotton balls. The glass bottle was left to stand overnight at room temperature, and the odor molecules were sufficiently volatilized in the glass bottle. A sensory evaluation test was carried out by a panel of three panelists (5 panelists for isovaleric acid), and while the intensity of odor in the case of adding dropwise the malodor alone was rated as 5, the intensity of the malodor in the case of incorporating a test substance was evaluated on the basis of a system of 20 grades from 0 point to 10 points (0.5 points per grade).
Regarding the test substance, florhydral (Givaudan SA), bourgeonal (Givaudan SA), hydroxycitronellal (Givaudan SA, International Flavors & Fragrances, Inc., and the like), 4-isopropylcyclohexanecarbaldehyde (synthesized according to a method described in JP-A-2-188549), 4-(2-methoxyphenyl)-2-methyl-2-butanol (JP-A-9-111281), florosa (Givaudan SA), isocyclocitral (Givaudan SA, International Flavors & Fragrances, Inc., and the like), tripral (International Flavors & Fragrances, Inc.), and Pollenal II (Kao Corp.), which had been diluted 100 times with propylene glycol, were used for hexanoic acid; florhydral that had been diluted 10 times with propylene glycol was used for nonanoic acid; and florhydral that had been diluted 1000 times with propylene glycol was used for isovaleric acid.

OR51I2 = molecular target: T2, OR51I2 (Homo sapiens, UniProt Q9H344); assay: Luciferase reporter gene assay, OR51I2 expressed in HEK293 cells; format: cell-based; settings: for Response of OR51I2 to the odor substance: fold increase of luciferase emission, 1 mM hexanoic acid or 300 μM nonanoic acid, or concentration series up to 1000 μM
T2 construct: expressed in transfected cells; host or cells: HEK293
T2 sequence (Q9H344 1-312): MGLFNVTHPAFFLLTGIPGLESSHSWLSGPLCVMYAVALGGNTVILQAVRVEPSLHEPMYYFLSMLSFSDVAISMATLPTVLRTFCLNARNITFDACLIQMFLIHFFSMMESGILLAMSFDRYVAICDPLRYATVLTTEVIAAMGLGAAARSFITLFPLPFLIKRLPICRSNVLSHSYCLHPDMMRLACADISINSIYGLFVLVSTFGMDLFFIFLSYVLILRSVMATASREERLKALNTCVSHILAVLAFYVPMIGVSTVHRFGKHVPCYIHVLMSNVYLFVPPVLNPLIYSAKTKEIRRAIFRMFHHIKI
Procedure: as §1, §2, §3, §4
as §5, with “(%)={1−(Z−Y)/(X−Y)}×100 […]” for “(%)={1−(Z−Y)/(X−Y)}×100”

OR2W1 = molecular target: T3, OR2W1 (Homo sapiens, UniProt Q9Y3N9); assay: Luciferase reporter gene assay, OR2W1 expressed in HEK293 cells; format: cell-based; settings: for Response of OR2W1 to the odor substance: fold increase of luciferase emission, 1 mM hexanoic acid or 300 μM nonanoic acid, or concentration series up to 1000 μM
T3 construct: expressed in transfected cells; host or cells: HEK293
T3 sequence (Q9Y3N9 1-320): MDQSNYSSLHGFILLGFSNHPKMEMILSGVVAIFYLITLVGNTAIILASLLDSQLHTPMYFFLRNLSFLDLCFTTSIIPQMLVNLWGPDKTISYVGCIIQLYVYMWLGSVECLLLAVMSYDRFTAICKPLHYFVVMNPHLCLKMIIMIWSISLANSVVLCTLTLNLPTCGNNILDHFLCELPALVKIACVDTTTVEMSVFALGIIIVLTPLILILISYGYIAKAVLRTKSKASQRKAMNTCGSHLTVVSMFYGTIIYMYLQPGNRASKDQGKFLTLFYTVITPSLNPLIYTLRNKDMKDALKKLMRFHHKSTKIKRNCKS
Procedure: as §1, §2, §3, §4
as §5, with “(%)={1−(Z−Y)/(X−Y)}×100 […]” for “(%)={1−(Z−Y)/(X−Y)}×100”

OR51E1 = molecular target: T4, OR51E1 (Homo sapiens, UniProt Q8TCB6); assay: Luciferase reporter gene assay, OR51E1 expressed in HEK293 cells; format: cell-based; settings: for Response of OR51E1 to the odor substance: fold increase of luciferase emission, 1 mM hexanoic acid or 300 μM nonanoic acid, or concentration series up to 1000 μM
T4 construct: expressed in transfected cells; host or cells: HEK293
T4 sequence (Q8TCB6 1-318): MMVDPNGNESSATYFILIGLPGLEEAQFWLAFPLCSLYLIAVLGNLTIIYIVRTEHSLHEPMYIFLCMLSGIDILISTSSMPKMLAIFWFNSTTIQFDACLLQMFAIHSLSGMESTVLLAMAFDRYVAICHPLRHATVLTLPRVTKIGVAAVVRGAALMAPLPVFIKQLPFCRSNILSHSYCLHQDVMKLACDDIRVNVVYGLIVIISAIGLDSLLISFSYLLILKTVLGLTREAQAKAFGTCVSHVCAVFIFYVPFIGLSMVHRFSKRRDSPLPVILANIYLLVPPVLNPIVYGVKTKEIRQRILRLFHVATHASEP
Procedure: as §1, §2, §3, §4
as §5, with “(%)={1−(Z−Y)/(X−Y)}×100 […]” for “(%)={1−(Z−Y)/(X−Y)}×100”

OR51L1 = molecular target: T5, OR51L1 (Homo sapiens, UniProt Q8NGJ5); assay: Luciferase reporter gene assay, OR51L1 expressed in HEK293 cells; format: cell-based; settings: for Response of OR51L1 to the odor substance: fold increase of luciferase emission, 1 mM hexanoic acid or 300 μM nonanoic acid, or concentration series up to 1000 μM
T5 construct: expressed in transfected cells; host or cells: HEK293
T5 sequence (Q8NGJ5 1-315): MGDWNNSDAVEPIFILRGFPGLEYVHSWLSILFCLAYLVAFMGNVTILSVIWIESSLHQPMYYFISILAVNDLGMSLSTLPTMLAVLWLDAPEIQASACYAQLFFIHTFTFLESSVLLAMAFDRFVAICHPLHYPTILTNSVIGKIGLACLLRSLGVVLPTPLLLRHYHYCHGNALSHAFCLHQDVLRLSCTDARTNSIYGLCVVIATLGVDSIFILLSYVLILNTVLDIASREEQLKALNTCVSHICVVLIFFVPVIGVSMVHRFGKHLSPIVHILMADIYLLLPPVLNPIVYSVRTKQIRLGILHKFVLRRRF
Procedure: as §1, §2, §3, §4
as §5, with “(%)={1−(Z−Y)/(X−Y)}×100 […]” for “(%)={1−(Z−Y)/(X−Y)}×100”

[2] = 1 mM hexanoic acid, test substance 3, 10, 30, 100, 300 μM (FIG. 4)

| Molecule | Inhibition ratio of OR10A6 response (OR10A6) | Response of OR51I2 to the odor substance (OR51I2) | Response of OR10A6 to the odor substance (OR10A6) | Response of OR2W1 to the odor substance (OR2W1) | Response of OR51E1 to the odor substance (OR51E1) | Response of OR51L1 to the odor substance (OR51L1) | also measured |
| --- | --- | --- | --- | --- | --- | --- | --- |
| CC(C)C1CCC(C)(C=O)CC1 (stereo not shown) [4-isopropyl-1-methylcyclohexanecarbaldehyde] | 1 (Inhibition ratio: 50% or higher) | – | – | – | – | – | – |
| CC(C)CC1CC(C)(O)CCO1 (stereo not shown) [Florosa, tetrahydro-4-methyl-2-(2-methylpropyl)-2H-pyran-4-ol] | 2 (Inhibition ratio: 20% to 50%) | – | – | – | – | – | Intensity of odor ([1]; hexanoic acid odor, malodor alone rated as 5, 0 to 10 points, test substance diluted 100 times with propylene glycol, three panelists): 3.38; Inhibition of hexanoic acid odor (in words) ([1]; sensory test, test substance diluted 100 times with propylene glycol (FIG. 5, Table 4)): inhibit the hexanoic acid odor |
| CC1=CC(C)C(CO)CC1 (stereo not shown) [floralol, reference compound] | – | – | – | – | – | – | Inhibition of OR51I2 response to hexanoic acid (in words) (OR51I2; [2]): no response inhibiting effect; Inhibition of OR10A6 response (in words) (OR10A6): no response inhibiting effect; Inhibition of OR2W1 response to hexanoic acid (in words) (OR2W1; [2]): no response inhibiting effect; Inhibition of OR51E1 response to hexanoic acid (in words) (OR51E1; [2]): no response inhibiting effect; Inhibition of OR51L1 response to hexanoic acid (in words) (OR51L1; [2]): no response inhibiting effect |
| CCCCCC(=O)O [hexanoic acid, reference compound] | – | exhibited response; also recorded: concentration-dependent response | exhibited response; also recorded: concentration-dependent response | exhibited response; also recorded: concentration-dependent response | exhibited response; also recorded: concentration-dependent response | exhibited response; also recorded: concentration-dependent response | – |
| CCCCCCCCC(=O)O [nonanoic acid, reference compound] | – | – | exhibited response | exhibited response | exhibited response | – | – |
| cresol [reference compound] | – | do not respond | do not respond | do not respond | do not respond | do not respond | – |
